Assay results: paper PMC2765816 (European journal of pharmacology, 2008)

Tests used:
[1] = target: adenosine A2A-CFP receptor (Homo sapiens, UniProt P29274); settings: 0.45 M; agonist 2 μM NECA
[2] = target: T1, adenosine A2B receptor (Homo sapiens, UniProt P29275); settings: ref Hide et al., 1992; cited from earlier work
T1 sequence (P29275 1-332): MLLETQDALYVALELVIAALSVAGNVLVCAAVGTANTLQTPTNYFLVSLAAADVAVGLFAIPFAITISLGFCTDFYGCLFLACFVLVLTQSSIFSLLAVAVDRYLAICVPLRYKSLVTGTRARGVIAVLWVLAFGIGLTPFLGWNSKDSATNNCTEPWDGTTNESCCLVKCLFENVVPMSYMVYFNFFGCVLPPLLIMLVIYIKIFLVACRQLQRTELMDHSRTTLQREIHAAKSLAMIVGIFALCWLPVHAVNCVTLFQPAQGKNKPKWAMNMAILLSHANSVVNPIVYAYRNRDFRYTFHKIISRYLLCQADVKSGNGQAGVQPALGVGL

adenosine A2A-CFP receptor, sequence (P29274 1-363): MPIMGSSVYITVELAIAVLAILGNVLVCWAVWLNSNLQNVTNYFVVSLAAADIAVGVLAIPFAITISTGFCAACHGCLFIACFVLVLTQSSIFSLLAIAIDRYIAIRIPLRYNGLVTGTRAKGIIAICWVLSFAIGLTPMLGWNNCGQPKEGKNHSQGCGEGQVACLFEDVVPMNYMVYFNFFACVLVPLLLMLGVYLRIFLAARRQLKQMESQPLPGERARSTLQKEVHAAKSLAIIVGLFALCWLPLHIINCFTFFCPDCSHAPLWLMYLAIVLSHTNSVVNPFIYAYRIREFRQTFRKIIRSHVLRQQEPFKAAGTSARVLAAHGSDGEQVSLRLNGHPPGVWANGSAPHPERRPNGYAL

Structure (SMILES) | effect on agonist-induced internalization of A2A-CFP [1] | activity at the adenosine A2B receptor [2]
OC[C@H]1O[C@@](CO)(O[C@H]2O[C@H](CO)[C@@H](O)[C@H](O)[C@H]2O)[C@@H](O)[C@@H]1O [hyperosmolar sucrose, sucrose] | prevented agonist-induced internalization | 
CCNC(=O)[C@H]1O[C@@H](n2cnc3c(N)nc(NCCc4ccc(CCC(=O)NCCN)cc4)nc32)[C@H](O)[C@@H]1O [APEC, 2-[4-(2-aminoethylaminocarbonylethyl)phenylethylamino]-5′-N-ethylcarboxamidoadenosine] |  | inactive
